Measured values published in patent US12116358B2, “Substituted indoles and methods of use thereof” (EPIZYME, INC., priority 2018, dated 2024).

Molecular target: T1, SETD2(1434-1711) (Homo sapiens, UniProt Q9BYW2)
T1 construct: SETD2 (1434-1711) Assay; catalogue N/A
T1 sequence (Q9BYW2 1434-1711): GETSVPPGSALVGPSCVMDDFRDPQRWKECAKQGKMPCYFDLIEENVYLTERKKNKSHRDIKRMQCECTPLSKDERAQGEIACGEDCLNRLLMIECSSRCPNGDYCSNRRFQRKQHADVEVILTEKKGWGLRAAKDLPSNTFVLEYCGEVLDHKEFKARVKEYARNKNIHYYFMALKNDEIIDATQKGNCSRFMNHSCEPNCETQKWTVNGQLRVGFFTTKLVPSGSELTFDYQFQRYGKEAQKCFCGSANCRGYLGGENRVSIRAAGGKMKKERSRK
Experiment: SETD2 (1434-1711) assay
Type: biochemical
Conditions: read-out: SETD2 (1434-1711)

Compound	IC50
Cc1ccc(F)c2cc(C(=O)Nc3cccc(-c4nnco4)c3)[nH]c12 [Cpd. No. 60, N-(3-(1,3,4-oxadiazol-2-yl)phenyl)-4-fluoro-7-methyl-1H-indole-2-carboxamide]	30 nM
Cc1ccc(F)c2cc(C(=O)Nc3cc(F)cc4cnccc34)[nH]c12 [Cpd. No. 82, 4-fluoro-N-(7-fluoroisoquinolin-5-yl)-7-methyl-1H-indole-2-carboxamide]	40 nM
Cc1cccnc1C(Cc1cnn(C)c1)NC(=O)c1cc2c(F)ccc(C)c2[nH]1 (stereo not drawn) [Cpd. No. 85, 4-fluoro-7-methyl-N-(2-(1-methyl-1H-pyrazol-4-yl)-1-(3-methylpyridin-2-yl)ethyl)-1H-indole-2-carboxamide]	40 nM
Cc1cc(Cn2ccnc2)cnc1C(NC(=O)c1cc2c(F)ccc(C)c2[nH]1)C1CC1 (stereo not drawn) [Cpd. No. 161, N-((5-((1H-imidazol-1-yl)methyl)-3-methylpyridin-2-yl)(cyclopropyl)methyl)-4-fluoro-7-methyl-1H-indole-2-carboxamide]	30 nM
Cc1ccc(F)c2cc(C(=O)Nc3cccc4c3cnn4[C@H]3CC[C@H](N(C)C)CC3)[nH]c12 [Cpd. No. 213, N-(1-((1r,4r)-4-(dimethylamino)cyclohexyl)-1H-indazol-4-yl)-4-fluoro-7-methyl-1H-indole-2-carboxamide]	7 nM
Cc1cccc2cc(C(=O)N3CCC4(CCc5ccccc54)C3)[nH]c12 (stereo not drawn) [compound 820]	> 200000 nM
Cc1cccnc1C(NC(=O)c1cc2cccc(CC3CCC3)c2[nH]1)C1CC1 (stereo not drawn) [compound 821]	> 200000 nM
Cc1ccc(F)c2cc(C(=O)N[C@@H]3CCC[C@@H](N4CCCNC(=O)C4)C3)[nH]c12 [compound 822]	8300 nM
CCOC(=O)N1CCN([C@@H]2CCC[C@@H](NC(=O)c3cc4c(F)ccc(C)c4[nH]3)C2)CC1 [compound 825]	1200 nM
Cc1ccc(F)c2cc(C(=O)N[C@@H]3CCC[C@@H](N4CCN(CC(F)(F)F)CC4)C3)[nH]c12 [compound 827]	7600 nM
Cc1ccc(F)c2cc(C(=O)N[C@@H]3CCC[C@@H](N4CCN(C(=O)N5CCOCC5)CC4)C3)[nH]c12 [compound 829]	1500 nM
Cc1ccc(F)c2cc(C(=O)N[C@@H]3CCC[C@H](N4CCN(C(=O)C5CC5)CC4)C3)[nH]c12 [compound 830]	40 nM
Cc1ccc(F)c2cc(C(=O)N[C@@H]3CCC[C@@H](N4CCN(C(=O)C5CC5)CC4)C3)[nH]c12 [compound 831]	2300 nM
Cc1ccc(F)c2cc(C(=O)N[C@@H]3CCCC(N4CCC(=O)N(C)CC4)C3)[nH]c12 (stereo partly drawn) [compound 832]	600 nM
CC(=O)NC1CCN([C@@H]2CCC[C@@H](NC(=O)c3cc4c(F)ccc(C)c4[nH]3)C2)C1 (stereo partly drawn) [compound 834]	5000 nM
CCN1CCN(C2CCCC(NC(=O)c3cc4c(F)ccc(C)c4[nH]3)C2)CC1=O (stereo not drawn) [compound 835]	100 nM
CCN1CCN([C@@H]2CCC[C@@H](NC(=O)c3cc4c(F)ccc(C)c4[nH]3)C2)CC1=O [compound 836]	4000 nM

Next, values leading:

IC50	Compound
9700 nM	Cc1ccc(F)c2cc(C(=O)N[C@@H]3CCC[C@@H](N4CCn5ccnc5C4)C3)[nH]c12 [compound 853]
3000 nM	Cc1ccc(F)c2cc(C(=O)NC3CCCC(N4CCn5c(n[nH]c5=O)C4)C3)[nH]c12 (stereo not drawn) [compound 1106]
> 200000 nM	Cc1cccc2cc(C(=O)NCc3ccccc3Cl)[nH]c12 [compound 1153]
17200 nM	Cc1cccc2cc(C(=O)NC(C)c3ccc(-n4cncn4)cc3)[nH]c12 (stereo not drawn) [compound 1155]

Test system: H3K36me3 in A549 cells
Experiment: In-Cell Western (ICW) assay of SETD2 inhibitors (A549 assay)
Type: cell-based, human
Conditions: A549 cells; read-out: SETD2 A549
Experimental: In-Cell Western (ICW) Assay of SETD2 Inhibitors (A549 Assay)
Representative Compounds of the Disclosure were tested in the A549 assay according the following protocol.
1. Reagents and Consumables:
Prepare plates with compounds. Seed A549 cells to the plates with compounds, 4,000 cells/well, 50 μl/well. Put the plates at room temperature on a non-vibrating surface for 20 minutes before placing in the incubator. Incubate the plate at 37° C. incubator with CO2 for 3 days. Remove plate from incubator and bring to room temperature. Blot media out of the plate and add 50 μL of ice cold 100% methanol. Incubate 30 minutes at room temperature. Remove methanol by aspiration. Wash 3× with PBST. Add 50 μL of Blocking Buffer+0.1% Tween 20. Incubate 1 hour. Remove Blocking Buffer, wash 3× with PBST. Add 20 μL of H3K36me3 (1:1000 dilution). […] Incubate overnight at 4° C. Wash plate 5× with PBS-T. Add 20 μL of DRAQ5 (1:1000) and IRDye 800CW Goat anti-Rabbit IgG (1:500). Incubate for 1 hour in the dark. Wash plate 5× with PBS-T. Wash plate 3× with water. Dry by blotting on paper towel, then centrifuge plate upside down on a thin layer of paper towels for 1 minute at 1000 rpm to remove excess reagent. Leave plate uncovered for ˜10 minutes out of direct light before reading. Read on Licor instrument.
4. Licor Instrument Settings:
Preset: Plate; Resolution: 84 μm; Quality: low; Focus offset: 4.0; 700 channel intensity: 2; and 800 channel intensity: 3.

Compound	IC50
Cc1ccc(F)c2cc(C(=O)NC3CCCC(N4CCOCC4)C3)[nH]c12 (stereo not drawn) [compound 374]	> 2000 nM
Cc1ccc(F)c2cc(C(=O)NC3CCCC(N4CCOCC4)C3)[nH]c12 (stereo not drawn) [compound 381]	> 2000 nM
Cc1ccc(F)c2cc(C(=O)NC3CCCC(N4CCN(C)C(=O)C4)C3)[nH]c12 (stereo not drawn) [compound 382]	> 2000 nM
Cc1cccc2cc(C(=O)NCc3ccccc3N3CCCC3)[nH]c12 [compound 528]	24600 nM
Cc1cccnc1C(NC(=O)c1cc2nccc(C)c2[nH]1)C1CC1 (stereo not drawn) [compound 599]	> 25000 nM
Cc1cccnc1[C@@H](NC(=O)c1cc2cccc(C)c2[nH]1)C1CC1 [compound 613]	> 25000 nM

Second part, the compound after the results:

IC50	Compound
> 2000 nM	CC(=O)N(C)[C@@H]1CCN([C@@H]2CCC[C@@H](NC(=O)c3cc4c(F)ccc(C)c4[nH]3)C2)C1 [compound 849]
> 2000 nM	Cc1ccc(F)c2cc(C(=O)N[C@@H]3CCC[C@@H](N4CCN(S(C)(=O)=O)CC4)C3)[nH]c12 [compound 851]
20 nM	Cc1ccc(F)c2cc(C(=O)NC3CCCC(N4CCN5C(=O)CCC5C4)C3)[nH]c12 (stereo not drawn) [compound 863]
1200 nM	Cc1ccc(F)c2cc(C(=O)N[C@@H]3CCC[C@@H](N4CCN5C(=O)CCC5C4)C3)[nH]c12 (stereo partly drawn) [compound 864]
100 nM	Cc1ccc(F)c2cc(C(=O)NC3CCCC(N4CCN5C(=O)CCC5C4)C3)[nH]c12 (stereo not drawn) [compound 920]
1000 nM	Cc1ccc(F)c2cc(C(=O)N[C@@H]3CCC[C@@H](N4CCN5C(=O)CC[C@@H]5C4)C3)[nH]c12 [compound 921]
10 nM	Cc1ccc(F)c2cc(C(=O)NC3CCCC(N4CCN5C(=O)CCC5C4)C3)[nH]c12 (stereo not drawn) [compound 922]
> 2000 nM	Cc1ccc(F)c2cc(C(=O)NC3CCCC(c4nnc(CN(C)C)o4)C3)[nH]c12 (stereo not drawn) [compound 954]
> 25000 nM	Cc1ccc(F)c2cc(C(=O)Nc3ncc(C4CCN(C)CC4)n3C)[nH]c12 [compound 1159]
> 2000 nM	CC(=O)N1CCC2CN(C3CCCC(NC(=O)c4cc5c(F)ccc(C)c5[nH]4)C3)CC21 (stereo not drawn) [compound 1181]
> 2000 nM	CC(=O)N1CCC2CN(C3CCCC(NC(=O)c4cc5c(F)ccc(C)c5[nH]4)C3)CC21 (stereo not drawn) [compound 1183]
5 nM	CC(=O)N1CCC2C1CCN2C1CCCC(NC(=O)c2cc3c(F)ccc(C)c3[nH]2)C1 (stereo not drawn) [compound 1184]
70 nM	CC(=O)N1CCC2C1CCN2C1CCCC(NC(=O)c2cc3c(F)ccc(C)c3[nH]2)C1 (stereo not drawn) [compound 1185]
> 2000 nM	CC(=O)N1CCC2C1CCN2C1CCCC(NC(=O)c2cc3c(F)ccc(C)c3[nH]2)C1 (stereo not drawn) [compound 1186]
> 2000 nM	CC(=O)N1CCC2C1CCN2C1CCCC(NC(=O)c2cc3c(F)ccc(C)c3[nH]2)C1 (stereo not drawn) [compound 1187]

Same assay, conditions: Homo sapiens, A549, read-out: SETD2 A549

Compound	IC50
Cc1ccc(F)c2cc(C(=O)N[C@@H]3CCC[C@H](N4CCN(C)C(=O)C4)C3)[nH]c12 [compound 169]	300 nM
CC(=O)N(C)C1CCN([C@@H]2CCC[C@@H](NC(=O)c3cc4c(F)ccc(C)c4[nH]3)C2)C1 (stereo partly drawn) [compound 385]	> 2000 nM
Cc1cccnc1C(NC(=O)c1cc2c(F)ccc(C)c2[nH]1)C1CC1 (stereo not drawn) [compound 462]	6300 nM
Cc1cccnc1[C@H](NC(=O)c1cc2cccc(C)c2[nH]1)C1CC1 [compound 463]	6400 nM
Cc1cccnc1C(NC(=O)c1cc2cccc(C)c2[nH]1)C1CC1 (stereo not drawn) [compound 475]	8900 nM
Cc1cccc2cc(C(=O)Nc3ccccc3)[nH]c12 [compound 479]	9500 nM
Cc1cccnc1C(NC(=O)c1cc2cc(F)cc(C)c2[nH]1)C1CC1 (stereo not drawn) [compound 497]	13800 nM
Cc1cccc2cc(C(=O)N[C@H]3CC[C@@H](NC(=O)CCN)CC3)[nH]c12 [compound 592]	> 25000 nM
CC(=O)N(C)[C@H]1CCN([C@H]2CCC[C@@H](NC(=O)c3cc4c(F)ccc(C)c4[nH]3)C2)C1 [compound 841]	100 nM
CC(=O)N(C)[C@H]1CCN([C@@H]2CCC[C@@H](NC(=O)c3cc4c(F)ccc(C)c4[nH]3)C2)C1 [compound 842]	> 2000 nM
Cc1ccc(F)c2cc(C(=O)N[C@@H]3CCC[C@@H](c4ccncc4)C3)[nH]c12 [compound 912]	> 2000 nM
Cc1ccc(F)c2cc(C(=O)N[C@@H]3CCC[C@H](c4ccncc4)C3)[nH]c12 [compound 913]	> 2000 nM
Cc1ccc(F)c2cc(C(=O)N[C@H]3CCC[C@@H](c4ccncc4)C3)[nH]c12 [compound 914]	300 nM
Cc1ccc(F)c2cc(C(=O)N[C@H]3CCC[C@H](c4ccncc4)C3)[nH]c12 [compound 915]	> 2000 nM

Same assay, conditions: Homo sapiens; A549 cells; read-out: SETD2 A549

IC50	Compound
100 nM	Cc1ccc(F)c2cc(C(=O)Nc3cccc(-c4nnco4)c3)[nH]c12 [Cpd. No. 60, N-(3-(1,3,4-oxadiazol-2-yl)phenyl)-4-fluoro-7-methyl-1H-indole-2-carboxamide]
200 nM	Cc1ccc(F)c2cc(C(=O)Nc3cc(F)cc4cnccc34)[nH]c12 [Cpd. No. 82, 4-fluoro-N-(7-fluoroisoquinolin-5-yl)-7-methyl-1H-indole-2-carboxamide]
200 nM	Cc1cccnc1C(Cc1cnn(C)c1)NC(=O)c1cc2c(F)ccc(C)c2[nH]1 (stereo not drawn) [Cpd. No. 85, 4-fluoro-7-methyl-N-(2-(1-methyl-1H-pyrazol-4-yl)-1-(3-methylpyridin-2-yl)ethyl)-1H-indole-2-carboxamide]
300 nM	Cc1cc(Cn2ccnc2)cnc1C(NC(=O)c1cc2c(F)ccc(C)c2[nH]1)C1CC1 (stereo not drawn) [Cpd. No. 161, N-((5-((1H-imidazol-1-yl)methyl)-3-methylpyridin-2-yl)(cyclopropyl)methyl)-4-fluoro-7-methyl-1H-indole-2-carboxamide]
500 nM	Cc1ccc(F)c2cc(C(=O)Nc3cccc4c3cnn4[C@H]3CC[C@H](N(C)C)CC3)[nH]c12 [Cpd. No. 213, N-(1-((1r,4r)-4-(dimethylamino)cyclohexyl)-1H-indazol-4-yl)-4-fluoro-7-methyl-1H-indole-2-carboxamide]
10800 nM	CCc1ccc(C)c2[nH]c(C(=O)NC(CCC(=O)N3CCOCC3)c3ncccc3C)cc12 (stereo not drawn) [compound 485]
18900 nM	Cc1nccnc1C(NC(=O)c1cc2cccc(C)c2[nH]1)C1CC1 (stereo not drawn) [compound 518]
